Each structure is given as a SMILES string. Values after ≈ are worked out from the molar mass of the structure shown.

The test system of this assay is P388. Kind of assay: Cytotoxicity against mouse P388 cells. The assay is classed as functional. The conditions noted are these: read-out: ED50 (the source's name).
As to `CC(=O)OCC1=CC(C)=C[C@@]2(C)C[C@]3(C[C@H]12)C(=O)O[C@H]1O[C@H]13` [SPIROTUBIPOLIDE], the EC50 came out at 3.24 µg/mL (≈ 10.6 µM). As for `CC1=CC=C[C@@]2(C)C[C@@H]3OC(=O)C(C)=C3C[C@@H]12` [TUBIPOLIDE B], the figure is 3.69 µg/mL (≈ 16 µM); as for `CC(=O)OCC1=CC=C[C@@]2(C)C=C3OC(=O)C(C)=C3C[C@@H]12` [TUBIPOLIDE G], 4.01 µg/mL (≈ 14 µM).

Values taken from ChEMBL document CHEMBL1156373, “Sesquiterpenes from the Formosan stolonifer Tubipora musica” (2001).
